Where two headings read alike, the source gives them in different places.
Columns and labels:
[1] = Water solubility of the drug (statement); assay type: physicochemical
[2] = Ascending single oral dose pharmacokinetic study of isovaleramide (oral solution) in healthy subjects; assay type: in vivo, human; details: for half-life / Cmax / CL/F: human; for CL/F: arithmetic mean
Procedure: (§1) Isovaleramide (NPS 1776) was orally administered in a double-blind, placebo-controlled, ascending single dose study conducted in two groups of healthy young male Caucasian subjects and one group of healthy young female Caucasian subjects to investigate the safety, tolerability, pharmacodynamics and pharmacokinetics of the drug. Various amounts of the drug were dissolved in 250 mL of a flavored soft drink (powdered soft drink diluted in mineral water) and administered as an oral solution.
Isovaleramide administered orally in the absence of a sustained-release formulation was rapidly absorbed and rapidly eliminated in human subjects (Table 1). Systemic exposure to the drug increased with increasing oral doses from 100 to 1600 mg in male subjects.

[3] = Safety and tolerability in the ascending single oral dose study; assay type: in vivo, human
Procedure: as §1
The most common adverse events were polyuria and headache. There were no dose-related trends in the incidence or severity of adverse events, or any difference in the incidence or severity of adverse events reported. Similar results were obtained in a 1200 mg dose level female group administered the drug for gender comparison.

CC(C)CC(N)=O [Isovaleramide]
water solubility [1]: very water soluble | time at which blood level falls below the effective concentration ([2]; 1200 mg dose, assumed effective target concentration about 10 μg/mL): about 5 hours | half-life ([2]; female, plasma, females, oral, 1200 mg, read-out: t½ (converted)): 1.89 h | Cmax ([2]; blood, oral, 1200 mg, read-out: initial maximum blood concentration (Cmax)): ~27000 ng/mL | half-life ([2]; plasma, humans, oral, no sustained-release formulation, doses 100 to 1600 mg, read-out: half-life (converted)): ~2.5 h | CL/F ([2]; plasma, male humans, oral, 100 mg): 3.83 mL/min/kg | Cmax ([2]; plasma, male humans, oral, 100 mg, geometric mean, read-out: Cmax): 1510 ng/mL | half-life ([2]; plasma, male humans, oral, 100 mg, harmonic mean, read-out: t1/2 (converted)): 2.7 h | CL/F ([2]; plasma, male humans, oral, 200 mg): 3.08 mL/min/kg | Cmax ([2]; plasma, male humans, oral, 200 mg, geometric mean, read-out: Cmax): 3320 ng/mL | half-life ([2]; plasma, male humans, oral, 200 mg, harmonic mean, read-out: t1/2 (converted)): 2.61 h | CL/F ([2]; plasma, male humans, oral, 400 mg): 3.13 mL/min/kg | Cmax ([2]; plasma, male humans, oral, 400 mg, geometric mean, read-out: Cmax): 6840 ng/mL | half-life ([2]; plasma, male humans, oral, 400 mg, harmonic mean, read-out: t1/2 (converted)): 2.5 h | CL/F ([2]; plasma, male humans, oral, 800 mg): 2.73 mL/min/kg | Cmax ([2]; plasma, male humans, oral, 800 mg, geometric mean, read-out: Cmax): 16400 ng/mL | half-life ([2]; plasma, male humans, oral, 800 mg, harmonic mean, read-out: t1/2 (converted)): 2.35 h | CL/F ([2]; plasma, male humans, oral, 1200 mg): 2.47 mL/min/kg | Cmax ([2]; plasma, male humans, oral, 1200 mg, geometric mean, read-out: Cmax): 27900 ng/mL | half-life ([2]; plasma, male humans, oral, 1200 mg, harmonic mean, read-out: t1/2 (converted)): 2.43 h | CL/F ([2]; plasma, male humans, oral, 1600 mg): 2.17 mL/min/kg | Cmax ([2]; plasma, male humans, oral, 1600 mg, geometric mean, read-out: Cmax): 39300 ng/mL | half-life ([2]; plasma, male humans, oral, 1600 mg, harmonic mean, read-out: t1/2 (converted)): 2.65 h | time to maximum drug concentration ([2]; humans, oral, all doses): less than one hour | time to maximum drug concentration, typical ([2]; humans, oral, all doses): about 30 minutes | increase in Cmax and AUC relative to increase in dose level ([2]; male subjects, oral, 100 to 1600 mg): slightly greater than proportional | change in drug concentration in the blood over a 12-hour period ([2]; single dose, for a 2.5-hour half-life): about 10 fold | changes in vital signs, 12-lead ECG, clinical laboratory assessments or physical examination ([3]; all dose levels): no clinically significant drug-or dose-related changes | tolerability ([3]; oral 100 to 1600 mg, healthy male subjects): well tolerated | severity of drug-related adverse events ([3]; oral 100 to 1600 mg, few events, most common polyuria and headache): all were mild in severity

Reference: US7235258B1, “Sustained-release formulations for treating CNS-mediated disorders” (NPS Pharmaceuticals, Inc., priority 1999, dated 2007)
